Measured values reported in ChEMBL document CHEMBL1156884, “Improvement of physiochemical properties of the tetrahydroazepinoindole series of farnesoid X receptor (FXR) agonists: beneficial modulation of lipids in primates” (J Med Chem, 2010).
In brackets after ≈: the same amount, converted by molar mass.

Legend:
[1] = Equilibrium solubility in 0.5% methylcellulose/2% Tween-80 in water; type: physicochemical
[2] = AUC (0 to infinity) in C57 mouse at 3 mg/kg, iv; type: ADME, organism-based; design: time infinity, dose 3 mg/kg, route intravenous; conditions: plasma
[3] = Cmax in C57 mouse at 3 mg/kg, po; type: ADME, organism-based; design: dose 3 mg/kg, route oral; conditions: in vivo
[4] = Tmax in C57 mouse at 3 mg/kg, po; type: ADME, organism-based; design: dose 3 mg/kg, route oral; conditions: in vivo
[5] = AUC (0 to infinity) in C57 mouse at 3 mg/kg, po; type: ADME, organism-based; design: time infinity, dose 3 mg/kg, route oral; conditions: plasma
[6] = (§1) AUC (0 to infinity) in Sprague-Dawley rat at 3 mg/kg, iv; type: ADME, organism-based, Plasma; design: time infinity, dose 3 mg/kg, route intravenous; conditions: Sprague-Dawley, plasma
[7] = Cmax in Sprague-Dawley rat at 3 mg/kg, po; type: ADME, organism-based; design: dose 3 mg/kg, route oral; conditions: in vivo
[8] = Tmax in Sprague-Dawley rat 3 mg/kg, po; type: ADME, organism-based; design: dose 3 mg/kg, route oral; conditions: in vivo
[9] = AUC (0 to infinity) in Sprague-Dawley rat at 3 mg/kg, po; type: ADME, organism-based; design: time infinity, dose 3 mg/kg, route oral; conditions: plasma
[10] = Oral bioavailability in Sprague-Dawley rat 3 mg/kg; type: ADME, organism-based; conditions: in vivo
[11] = Cmax in C57 mouse at 30 mg/kg, po; type: ADME, organism-based; design: dose 30 mg/kg, route oral; conditions: in vivo
[12] = Tmax in C57 mouse at 30 mg/kg, po; type: ADME, organism-based; design: dose 30 mg/kg, route oral; conditions: in vivo
[13] = AUC (0 to infinity) in C57 mouse at 30 mg/kg, po; type: ADME, organism-based; design: time infinity, dose 30 mg/kg, route oral; conditions: plasma
[14] = Oral bioavailability in C57 mouse at 30 mg/kg; type: ADME, organism-based; conditions: in vivo
Rattus norvegicus [15] = assay: as §1; type: ADME, organism-based, Plasma; design: time infinity, dose 3 mg/kg, route intravenous; conditions: in vivo
[16] = Cmax in Sprague-Dawley rat at 30 mg/kg, po; type: ADME, organism-based; design: dose 30 mg/kg, route oral; conditions: in vivo
[17] = Tmax in Sprague-Dawley rat 30 mg/kg, po; type: ADME, organism-based; design: dose 30 mg/kg, route oral; conditions: in vivo
Rattus norvegicus [18] = assay: AUC (0 to infinity) in Sprague-Dawley rat at 30 mg/kg, po; type: ADME, organism-based, Plasma; design: time infinity, dose 30 mg/kg, route oral; conditions: in vivo
Rattus norvegicus [19] = assay: Oral bioavailability in Sprague-Dawley rat at 30 mg/kg; type: ADME, organism-based; conditions: in vivo

| solubility thermodynamic [1] [µg/mL] | Structure (SMILES) | also measured |
| --- | --- | --- |
| 250 (≈ 444 µM) | CC(C)OC(=O)C1=CN(C(=O)c2ccc(OCCCN3CCOCC3)cc2)CC(C)(C)c2c1[nH]c1cc(F)ccc21 | AUC(0-inf) [2]: 1720 ng·h/mL; Cmax [3]: 81 ng/mL; Tmax [4]: 1 h; AUC(0-inf) [5]: 370 ng·h/mL; AUC(0-inf) [6]: 960 ng·h/mL; Cmax [7]: 68 ng/mL; Tmax [8]: 2 h; AUC(0-inf) [9]: 361 ng·h/mL; bioavailability [10]: 38% |
| 5920 | CC(C)OC(=O)C1=CN(C(=O)c2ccc(OCCCN3CCOCC3)cc2)CC(C)(C)c2c1[nH]c1cc(F)ccc21.Cl | – |
| > 6000 | CC(C)OC(=O)C1=CN(C(=O)c2ccc(OCCN3CCOCC3)cc2)CC(C)(C)c2c1[nH]c1cc(F)ccc21.Cl | – |
| 1140 (≈ 2040 µM) | CC(C)OC(=O)C1=CN(C(=O)c2ccc(OCCCN3CCN(C)CC3)cc2)CC(C)(C)c2c1[nH]c1ccccc21 | – |
| 24 (≈ 46.5 µM) | CC(C)OC(=O)C1=CN(C(=O)c2ccc(OCCN3CCCC3)cc2)CC(C)(C)c2c1[nH]c1ccccc21 | – |
| 280 (≈ 509 µM) | CC(C)OC(=O)C1=CN(C(=O)c2ccc(OCCN3CCOCC3)cc2)CC(C)(C)c2c1[nH]c1cc(F)ccc21 | AUC(0-inf) [2]: 1260 ng·h/mL; Cmax [11]: 1130 ng/mL; Tmax [12]: 1 h; AUC(0-inf) [13]: 6700 ng·h/mL; bioavailability [14]: 53%; AUC (Rattus norvegicus [15]): 781 ng·h/mL; Cmax [16]: 35 ng/mL; Tmax [17]: 1.7 h; AUC (Rattus norvegicus [18]): 193 ng·h/mL; F (Rattus norvegicus [19]): 25% |
| 200 (≈ 367 µM) | CC(C)OC(=O)C1=CN(C(=O)c2ccc(OCCCN3CCOCC3)cc2)CC(C)(C)c2c1[nH]c1ccccc21 | – |
| 118 (≈ 216 µM) | CC(C)OC(=O)C1=CN(C(=O)c2cccc(OCCCN3CCOCC3)c2)CC(C)(C)c2c1[nH]c1ccccc21 | – |
| 111 (≈ 210 µM) | CC(C)OC(=O)C1=CN(C(=O)c2cccc(OCCN3CCCCC3)c2)CC(C)(C)c2c1[nH]c1ccccc21 | – |
| 2330 (≈ 4400 µM) | CC(C)OC(=O)C1=CN(C(=O)c2ccc(OCCCN3CCCC3)cc2)CC(C)(C)c2c1[nH]c1ccccc21 | – |
| 1220 (≈ 2240 µM) | CC(C)OC(=O)C1=CN(C(=O)c2ccc(OCCCN3CCCCC3)cc2)CC(C)(C)c2c1[nH]c1ccccc21 | – |
| 536 (≈ 1090 µM) | CC(C)OC(=O)C1=CN(C(=O)c2cccc(OCCN(C)C)c2)CC(C)(C)c2c1[nH]c1ccccc21 | – |
| 1740 (≈ 3110 µM) | CC(C)OC(=O)C1=CN(C(=O)c2cccc(OCCCN3CCN(C)CC3)c2)CC(C)(C)c2c1[nH]c1ccccc21 | – |
| 80 (≈ 150 µM) | CC(C)OC(=O)C1=CN(C(=O)c2ccc(OCCN3CCOCC3)cc2)CC(C)(C)c2c1[nH]c1ccccc21 | – |
| 82 (≈ 151 µM) | CC(C)OC(=O)C1=CN(C(=O)c2ccc(OCCN3CCN(C)CC3)cc2)CC(C)(C)c2c1[nH]c1ccccc21 | – |
| 245 (≈ 488 µM) | CC(C)OC(=O)C1=CN(C(=O)c2ccc(CN3CCOCC3)cc2)CC(C)(C)c2c1[nH]c1ccccc21 | – |
| 2470 (≈ 4900 µM) | CC(C)OC(=O)C1=CN(C(=O)c2ccc(OCCCN(C)C)cc2)CC(C)(C)c2c1[nH]c1ccccc21 | – |
| 380 (≈ 731 µM) | CC(C)OC(=O)C1=CN(C(=O)c2ccc(CN3CCOCC3)cc2)CC(C)(C)c2c1[nH]c1cc(F)ccc21 | – |
| 80 (≈ 151 µM) | CC(C)OC(=O)C1=CN(C(=O)c2ccc(OCCN3CCCCC3)cc2)CC(C)(C)c2c1[nH]c1ccccc21 | – |
| 1040 (≈ 1920 µM) | CC(C)OC(=O)C1=CN(C(=O)c2cccc(OCCCN3CCCCC3)c2)CC(C)(C)c2c1[nH]c1ccccc21 | – |
| 17 (≈ 34.7 µM) | CC(C)OC(=O)C1=CN(C(=O)c2ccc(OCCN(C)C)cc2)CC(C)(C)c2c1[nH]c1ccccc21 | – |
| 155 (≈ 292 µM) | CC(C)OC(=O)C1=CN(C(=O)c2cccc(OCCN3CCOCC3)c2)CC(C)(C)c2c1[nH]c1ccccc21 | – |
